Results: patent US9381200B2, “Nitrogen containing compounds” (WOCKHARDT LIMITED, priority 2011, dated 2016)
≈ marks a conversion by molar mass, not a printed value. Where two headings read alike, the source gives them in different places. Each block holds one molecule with its values, some of them ahead of it.

What was measured:
Assay type in all cases: cell-based
[1] = tested on: E. coli 7 MP; assay: Antibacterial activity (MIC), agar dilution per CLSI; settings: Table 3, E. coli 7 MP expressing ESBL
Protocol: (§1) The biological activity of representative compounds according to the invention against various bacterial strains was investigated. In a typical study, overnight grown bacterial cultures were diluted appropriately and inoculated on the agar media containing doubling dilutions of the test compounds. Observation for growth or no growth was performed after 16-20 hours of incubation at 35±2° C. in ambient air. The overall procedure was performed as per Clinical and Laboratory Standards Institute (CLSI) recommendations (Clinical and Laboratory Standards Institute (CLSI), Performance Standards for Antimicrobial Susceptibility Testing, 20th Informational Supplement, M 100-S20, Volume 30, No. 1, 2010).
(§2) Table 3 details antibacterial activity of representative compounds according to the invention against various E. coli strains (NCTC 13351, M 50 and 7 MP) expressing ESBL (Extended Spectrum Beta Lactamases).

[2] = tested on: E. coli NCTC 13351; assay: as above; settings: 16-20 hours, 35±2° C.
Protocol: as §1, §2

[3] = tested on: E. coli M 50; assay: as above
Protocol: as §1
(§3) The activities are expressed as MICs (mcg/ml).

[4] = tested on: K penumoniae H 525; assay: Antibacterial activity (MIC) against MDR Gram negative strains; settings: Table 4; K penumoniae H 525, KPC ESBL, MDR; read-out: MIC
Protocol: as §1, §3

[5] = tested on: E. Coli H 484; assay: as above; settings: Escherichia coli; Table 4; E. Coli H 484, Class C ESBL, MDR; read-out: MIC
Protocol: as §1, §3

[6] = tested on: E. Coli B 89; assay: as above; settings: Escherichia coli; Table 4; E. Coli B 89, Class C ESBL, MDR; read-out: MIC
Protocol: as §1, §3

[7] = tested on: K penumoniae H 523; assay: as above; settings: Table 4; K penumoniae H 523, KPC ESBL, MDR; read-out: MIC
Protocol: as §1, §3

[8] = tested on: E. Coli W 13353; assay: as above; settings: Escherichia coli; Table 4; E. Coli W 13353, Class A ESBL, MDR; read-out: MIC
Protocol: as §1, §3

[9] = tested on: K penumoniae H 521; assay: as above; settings: Table 4; K penumoniae H 521, KPC ESBL, MDR; read-out: MIC
Protocol: as §1, §3

[10] = tested on: E. Coli M 44; assay: as above; settings: Escherichia coli; Table 5; E. Coli M 44, Class B ESBL, MDR; read-out: MIC
Protocol: as §1, §3

[11] = tested on: P. aeruginosa Ps 21; assay: as above; settings: Pseudomonas aeruginosa, PS21; Table 5; P. aeruginosa Ps 21; read-out: MIC
Protocol: as §1, §3

[12] = tested on: P. aeruginosa ATCC 27853; assay: as above; settings: Pseudomonas aeruginosa, ATCC27853; Table 5; P. aeruginosa ATCC 27853; read-out: MIC
Protocol: as §1, §3

[13] = tested on: E. Coli W 13352; assay: as above; settings: Escherichia coli; Table 4; E. Coli W 13352, Class A ESBL, MDR; read-out: MIC
Protocol: as §1, §3

[14] = tested on: K. penumoniae S 48; assay: as above; settings: Table 5; K. penumoniae S 48, Class B ESBL, MDR; read-out: MIC
Protocol: as §1, §3

[15] = tested on: P. aeruginosa Ps 32; assay: as above; settings: Pseudomonas aeruginosa, PS32; Table 5; P. aeruginosa Ps 32; read-out: MIC
Protocol: as §1, §3

[16] = tested on: E. Coli W 13351; assay: as above; settings: Escherichia coli; Table 4; E. Coli W 13351, Class A ESBL, MDR; read-out: MIC
Protocol: as §1, §3

[17] = tested on: E. Coli M 3; assay: as above; settings: Escherichia coli; Table 5; E. Coli M 3, Class B ESBL, MDR; read-out: MIC
Protocol: as §1, §3

[18] = Table 3, E. coli NCTC 13351 expressing ESBL
[19] = Table 3, E. coli M 50 expressing ESBL, agar dilution
[20] = Escherichia coli, read-out: MIC
[21] = Escherichia coli, NCTC13351, Table 3, E. coli NCTC 13351 expressing ESBL, read-out: MIC
[22] = Escherichia coli, M50, Table 3, E. coli M 50 expressing ESBL, agar dilution, read-out: MIC
[23] = Escherichia coli, M50, Table 4, E. Coli M 50, Class C ESBL, MDR, read-out: MIC

MIC [1]: 4 µg/mL (≈ 9.87 µM)
MIC [2, 18]: 1 µg/mL (≈ 2.47 µM)
MIC [3, 19]: 1 µg/mL (≈ 2.47 µM)
SMILES: O=C(CC[C@@H]1CCCN1)NNC(=O)[C@H]1CC[C@@H]2CN1C(=O)N2OS(=O)(=O)O (relative stereo) [Example 31, trans-sulfuric acid mono-[2-(N′—[((S)-3-pyrrolidin-2-yl)-propionyl]-hydrazinocarbonyl)-7-oxo-1,6-diaza-bicyclo[3.2.1]oct-6-yl]ester]

MIC [1, 20]: 4 µg/mL (≈ 9.21 µM)
MIC [2, 21]: 1 µg/mL (≈ 2.3 µM)
MIC [3, 22]: 1 µg/mL (≈ 2.3 µM)
SMILES: O=C(CC(=O)N1CCNCC1)NNC(=O)[C@H]1CC[C@@H]2CN1C(=O)N2OS(=O)(=O)O (relative stereo) [Example 40, trans-sulfuric acid mono-[2-(N′-(3-oxo-3-piperazin-1-yl-propionyl)-hydrazinocarbonyl)-7-oxo-1,6-diaza-bicyclo[3.2.1]oct-6-yl]ester]

MIC [1, 20]: 64 µg/mL (≈ 157 µM)
MIC [2, 21]: 32 µg/mL (≈ 78.7 µM)
MIC [3, 22]: 32 µg/mL (≈ 78.7 µM)
SMILES: Nc1nc(C(=O)NNC(=O)[C@H]2CC[C@@H]3CN2C(=O)N3OS(=O)(=O)O)cs1 (relative stereo) [Example 42, trans-sulfuric acid mono-[2-(N′-(2-amino-thiazol-4-carbonyl)-hydrazinocarbonyl)-7-oxo-1,6-diaza-bicyclo[3.2.1]oct-6-yl]ester]

SMILES: CC(C)(C)OC(=O)NNC(=O)[C@H]1CC[C@@H]2CN1C(=O)N2OS(=O)(=O)[O-].[Na+] (relative stereo) [Example 44, Sodium salt of trans-N′-(7-oxo-6-sulfooxy-1,6-diaza-bicyclo[3.2.1]octane-2-carboxylic acid)-hydrazinecarboxylic acid tert-butyl ester]
MIC [1]: 64 µg/mL
MIC [2, 18]: 32 µg/mL
MIC [3, 19]: 32 µg/mL

MIC [1]: 128 µg/mL
MIC [2, 18]: 32 µg/mL
MIC [3, 19]: 64 µg/mL
SMILES: O=C(NNC(=O)N1CCOCC1)[C@H]1CC[C@@H]2CN1C(=O)N2OS(=O)(=O)O.[Na] (relative stereo) [Example 47, Sodium salt of trans-sulfuric acid mono-[2-(N′-(morpholin-4-oxo-carbonyl)-hydrazinocarbonyl)-7-oxo-1,6-diaza-bicyclo[3.2.1]oct-6-yl]ester]

MIC [1]: 32 µg/mL
MIC [2, 18]: 16 µg/mL
MIC [3, 19]: 8 µg/mL
SMILES: NC(=O)N1CCC[C@H]1C(=O)NNC(=O)[C@H]1CC[C@@H]2CN1C(=O)N2OS(=O)(=O)[O-].[Na+] (relative stereo) [Example 48, Sodium salt of trans-sulfuric acid mono-[2-(N′—[(S)-1-carbamoyl-pyrrolidin-2-carbonyl]-hydrazinocarbonyl)-7-oxo-1,6-diaza-bicyclo [3.2.1]oct-6-yl]ester]

MIC [1]: 16 µg/mL
MIC [2, 18]: 32 µg/mL
MIC [3, 19]: 16 µg/mL
SMILES: NC(=O)N1C[C@@H](F)C[C@H]1C(=O)NNC(=O)C1CCC2CN1C(=O)N2OS(=O)(=O)[O-].[Na+] (relative stereo) [Example 49, Sodium salt of trans-sulfuric acid mono-[2-(N′—[(2S,4S)-1-carbamoyl-4-fluoro-pyrrolidin-2-carbonyl]-hydrazinocarbonyl)-7-oxo-1,6-diaza-bicyclo[3.2.1]oct-6-yl]ester]

MIC [1]: 32 µg/mL
MIC [2, 18]: 16 µg/mL
MIC [3, 19]: 16 µg/mL
SMILES: CS(=O)(=O)N1CCC[C@H]1C(=O)NNC(=O)[C@H]1CC[C@@H]2CN1C(=O)N2OS(=O)(=O)[O-].[Na+] (relative stereo) [Example 50, Sodium salt of trans-sulfuric acid mono-[2-(N′—[(S)-1-methanesulfonyl-pyrrolidin-2-carbonyl]-hydrazinocarbonyl)-7-oxo-1,6-diaza-bicyclo[3.2.1]oct-6-yl]ester]

SMILES: CC(C)(C#N)C(=O)NNC(=O)[C@H]1CC[C@@H]2CN1C(=O)N2OS(=O)(=O)[O-].[Na+] (relative stereo) [Example 51, Sodium salt of trans-sulfuric acid mono-[2-(N′-(cyano-dimethyl-acetyl)-hydrazinocarbonyl)-7-oxo-1,6-diaza-bicyclo[3.2.1]oct-6-yl]ester]
MIC [1]: 32 µg/mL
MIC [2, 18]: 16 µg/mL
MIC [3, 19]: 16 µg/mL

MIC [1]: 2 µg/mL
MIC [2, 18]: 0.5 µg/mL
MIC [3, 19]: 0.5 µg/mL
SMILES: O=C1CC[C@@H](C(=O)NNC(=O)[C@H]2CC[C@@H]3CN2C(=O)N3OS(=O)(=O)[O-])N1.[Na+] (relative stereo) [Example 52, Sodium salt of trans-sulfuric acid mono-[2-(N′—[(S)-5-oxo-pyrrolidin-2-carbonyl]-hydrazinocarbonyl)-7-oxo-1,6-diaza-bicyclo[3.2.1]oct-6-yl]ester]

MIC [4]: > 32 µg/mL
MIC [5]: > 32 µg/mL
MIC [6]: > 32 µg/mL
MIC [7]: > 32 µg/mL
MIC [8]: > 32 µg/mL
MIC [9]: > 32 µg/mL
MIC [10]: > 32 µg/mL
MIC [11]: 8 µg/mL (≈ 18.4 µM)
MIC [12]: 2 µg/mL (≈ 4.59 µM)
MIC [13]: > 32 µg/mL
MIC [14]: > 32 µg/mL
MIC [15]: 8 µg/mL (≈ 18.4 µM)
MIC [16]: > 32 µg/mL
MIC [17]: > 32 µg/mL
MIC [3, 23]: > 32 µg/mL
SMILES: C[C@H]1[C@H](NC(=O)/C(=N\OC(C)(C)C(=O)O)c2csc(N)n2)C(=O)N1S(=O)(=O)O [Aztreonam, reference compound]

MIC [4]: 32 µg/mL (≈ 96.6 µM)
MIC [7]: 8 µg/mL (≈ 24.1 µM)
MIC [9]: 32 µg/mL (≈ 96.6 µM)
MIC [12]: 0.5 µg/mL (≈ 1.51 µM)
SMILES: O=C(O)c1cn(C2CC2)c2cc(N3CCNCC3)c(F)cc2c1=O [Ciprofloxacin, reference compound]

MIC [1, 20]: 16 µg/mL (≈ 43.3 µM)
MIC [2, 21]: 8 µg/mL (≈ 21.7 µM)
MIC [3, 22]: 8 µg/mL (≈ 21.7 µM)
SMILES: O=C(O)CON1C(=O)N2C[C@H]1CC[C@H]2C(=O)NNC(=O)[C@@H]1CCCNC1 [Example 4, trans-{7-oxo-2-[N′—((R)-piperidin-3-carbonyl)-hydrazinocarbonyl]-1,6-diaza-bicyclo[3.2.1]-oct-6-yloxy}-acetic acid]

MIC [1]: 8 µg/mL
MIC [2, 18]: 4 µg/mL
MIC [3, 19]: 8 µg/mL
SMILES: O=C(CN1CCOCC1)NNC(=O)C1CCC2CN1C(=O)N2OS(=O)(=O)[O-].[Na+] (stereo not drawn) [Example 45, Sodium salt of trans-sulfuric acid mono-[2-(N′-(morpholin-4-yl-acetyl)-hydrazinocarbonyl)-7-oxo-1,6-diaza-bicyclo[3.2.1]oct-6-yl]ester]

MIC [1]: 128 µg/mL
MIC [2, 18]: 32 µg/mL
MIC [3, 19]: 64 µg/mL
SMILES: NC(=O)c1cccc(C(=O)NNC(=O)C2CCC3CN2C(=O)N3OS(=O)(=O)[O-])n1.[Na+] (stereo not drawn) [Example 46, Sodium salt of trans-sulfuric acid mono-[2-(N′-(6-carboxamido-pyridin-2-carbonyl)-hydrazinocarbonyl)-7-oxo-1,6-diaza-bicyclo[3.2.1]oct-6-yl]ester]

MIC [4]: 16 µg/mL (≈ 53.4 µM)
MIC [5]: 4 µg/mL (≈ 13.4 µM)
MIC [6]: 0.5 µg/mL (≈ 1.67 µM)
MIC [7]: 16 µg/mL (≈ 53.4 µM)
MIC [8]: 0.25 µg/mL (≈ 0.835 µM)
MIC [9]: 16 µg/mL (≈ 53.4 µM)
MIC [10]: 32 µg/mL (≈ 107 µM)
MIC [11]: > 32 µg/mL
MIC [12]: 4 µg/mL (≈ 13.4 µM)
MIC [13]: 0.25 µg/mL (≈ 0.835 µM)
MIC [14]: 16 µg/mL (≈ 53.4 µM)
MIC [15]: > 32 µg/mL
MIC [16]: 0.25 µg/mL (≈ 0.835 µM)
MIC [17]: 8 µg/mL (≈ 26.7 µM)
MIC [3, 23]: 0.5 µg/mL (≈ 1.67 µM)
SMILES: C[C@@H](O)[C@H]1C(=O)N2C(C(=O)O)=C(SCCN=CN)C[C@H]12 [Imipenem, reference compound]
